Results as given in patent US20260000676A1, “CHROMAN DERIVATIVES AS ESTROGEN RECEPTOR DEGRADERS” (THE REGENTS OF THE UNIVERSITY OF MICHIGAN, priority 2022, published 2026).
Where a name gives a salt, the structure may show the parent alone.

What was measured:
[1] = system: T47D cells; test: cells; details: Homo sapiens, 144 h, read-out: T47D Proliferation IC50 (nM)
Description: (§1) In vitro assay can be accomplished by MCF-7 and T47D Cell Titer Glo (CTG) assay. MCF-7 and T47D cell (From HDB) are cultured in multi-well white plate with phenol red-free RPMI1640+10% CS-FBS+1% P/S medium (e.g., at 1,000 cells/well). On day 0: Cells are treated with compound at certain concentrations (e.g., 0.5 to 10000 nM) (DMSO and Staurosporine as control). On day 0 and day 6: add Cell Titer Glo reagent and read on EnVision after 30 min incubation for data generation.
(§2) • 1) Cell culture medium: phenol red-free RPMI1640+10% CS-FBS, 1% P/S
(§3) Day-1: MCF-7 and T47D cell (From HDB) were cultured in 384-well white plate with phenol red-free RPMI1640+10% CS-FBS+1% P/S medium (1,000 cells/well) for overnight at 37° C., 5% CO2 incubator.
(§4) Day 0: Cells were treated at desired compound concentrations (0.5 to 10000 nM) (DMSO and Staurosporine as control) for Day 6 at 37° C., 5% CO2 incubator.
(§5) Day 0 and Day 6: add Cell TiterGlo reagent and read on EnVision after 30 min incubation for data generation.

[2] = target: CRBN/DDB1 (Homo sapiens (Human), UniProt Q96SW2); test: HTRF binding assay to CRBN/DDB1; details: read-out: CRBN HTRF IC50
Description: The binding potency was determined using HTRF assay technology (Perkin Elmer). Compounds were serially diluted in DMSO and 0.2 μL volume was transferred to white 384-well plate.

[3] = system: MCF-7 cells; test: cells; details: Homo sapiens, MCF7, 144 h, read-out: MCF7 Proliferation IC50 (nM)
Description: as §1, §2, §3, §4, §5

[4] = target: ERα_LBD(GST) (Homo sapiens (Human), UniProt P03372); test: LanthaScreen TR-FRET ERα competitive binding assay; details: read-out: ERα HTRF IC50
Method in brief: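 GST-tagged ERα LBD (4 nM) with Tb anti-GST (2 nM) and Fluormone ES2 Green tracer (3 nM) in nuclear receptor buffer K plus 5 mM DTT, 1% DMSO; 3-fold compound dilutions, 60 min at room temperature in the dark. TR-FRET 520/495 nm ratio vs log[ligand], sigmoidal fit for IC50; 1 μM ARV_471 as full-inhibition control.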

[5] = target: T1, ER (Homo sapiens (Human), UniProt P03372); test: In-cell western (ICW) ER degradation assay in T47D cells; type: cell-based; details: 16 hrs; for DC50: ER degradation
[6] = target: T1, ER; test: In-cell western (ICW) ER degradation assay in MCF-7 cells; type: cell-based; details: MCF7, 16 hrs; for DC50: ER degradation; for MCF7 Dmax %: maximal ER degradation; for Dmax: MCF7, maximal ER degradation

ERα_LBD(GST), sequence (P03372 311-547): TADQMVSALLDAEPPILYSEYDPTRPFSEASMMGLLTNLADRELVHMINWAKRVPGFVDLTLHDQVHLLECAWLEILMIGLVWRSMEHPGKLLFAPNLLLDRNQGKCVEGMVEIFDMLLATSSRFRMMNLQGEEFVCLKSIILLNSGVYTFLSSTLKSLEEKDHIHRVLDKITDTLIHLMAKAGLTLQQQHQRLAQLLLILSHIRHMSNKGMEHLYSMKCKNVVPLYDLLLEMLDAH
CRBN/DDB1, sequence (Q96SW2 whole entry): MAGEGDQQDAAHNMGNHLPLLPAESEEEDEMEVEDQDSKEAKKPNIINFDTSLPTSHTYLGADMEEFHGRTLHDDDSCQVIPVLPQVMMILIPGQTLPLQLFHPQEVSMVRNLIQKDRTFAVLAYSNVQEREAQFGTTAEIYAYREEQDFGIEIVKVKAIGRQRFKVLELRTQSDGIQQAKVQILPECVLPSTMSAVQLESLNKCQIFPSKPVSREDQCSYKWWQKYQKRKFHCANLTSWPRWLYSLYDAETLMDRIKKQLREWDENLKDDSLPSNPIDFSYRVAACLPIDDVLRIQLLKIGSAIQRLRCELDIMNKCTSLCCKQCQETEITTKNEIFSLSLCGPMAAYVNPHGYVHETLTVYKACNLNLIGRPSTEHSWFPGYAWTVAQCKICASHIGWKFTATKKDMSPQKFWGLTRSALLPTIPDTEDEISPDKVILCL
CRBN/DDB1, sequence (Q16531 whole entry partner): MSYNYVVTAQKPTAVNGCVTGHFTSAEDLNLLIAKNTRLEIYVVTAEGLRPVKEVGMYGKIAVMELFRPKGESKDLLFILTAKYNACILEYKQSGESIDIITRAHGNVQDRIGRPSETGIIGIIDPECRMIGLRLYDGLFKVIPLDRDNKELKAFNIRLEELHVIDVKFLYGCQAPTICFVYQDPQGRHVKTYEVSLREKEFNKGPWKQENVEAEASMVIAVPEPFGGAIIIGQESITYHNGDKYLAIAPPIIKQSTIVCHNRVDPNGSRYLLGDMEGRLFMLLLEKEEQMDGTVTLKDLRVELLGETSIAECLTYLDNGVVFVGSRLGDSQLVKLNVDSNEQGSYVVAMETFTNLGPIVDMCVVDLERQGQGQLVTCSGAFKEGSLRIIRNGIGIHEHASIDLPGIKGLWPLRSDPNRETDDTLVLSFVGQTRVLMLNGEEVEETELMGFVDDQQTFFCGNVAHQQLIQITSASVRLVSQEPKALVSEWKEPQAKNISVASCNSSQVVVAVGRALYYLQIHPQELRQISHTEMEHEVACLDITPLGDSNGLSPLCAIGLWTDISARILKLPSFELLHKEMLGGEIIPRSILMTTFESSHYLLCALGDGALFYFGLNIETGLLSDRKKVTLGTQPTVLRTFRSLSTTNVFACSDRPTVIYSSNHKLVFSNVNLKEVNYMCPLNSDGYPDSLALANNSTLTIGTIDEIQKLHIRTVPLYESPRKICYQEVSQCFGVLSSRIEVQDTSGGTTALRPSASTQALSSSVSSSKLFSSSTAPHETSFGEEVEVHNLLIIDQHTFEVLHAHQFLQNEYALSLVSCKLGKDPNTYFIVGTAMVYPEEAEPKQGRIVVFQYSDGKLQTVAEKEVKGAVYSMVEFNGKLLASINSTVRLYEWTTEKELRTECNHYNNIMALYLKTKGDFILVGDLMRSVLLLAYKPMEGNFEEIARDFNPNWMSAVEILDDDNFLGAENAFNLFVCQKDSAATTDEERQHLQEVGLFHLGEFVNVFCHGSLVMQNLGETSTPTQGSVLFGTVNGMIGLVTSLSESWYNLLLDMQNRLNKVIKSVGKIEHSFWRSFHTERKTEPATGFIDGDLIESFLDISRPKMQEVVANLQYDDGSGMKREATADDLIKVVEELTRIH
T1 sequence (P03372 whole entry): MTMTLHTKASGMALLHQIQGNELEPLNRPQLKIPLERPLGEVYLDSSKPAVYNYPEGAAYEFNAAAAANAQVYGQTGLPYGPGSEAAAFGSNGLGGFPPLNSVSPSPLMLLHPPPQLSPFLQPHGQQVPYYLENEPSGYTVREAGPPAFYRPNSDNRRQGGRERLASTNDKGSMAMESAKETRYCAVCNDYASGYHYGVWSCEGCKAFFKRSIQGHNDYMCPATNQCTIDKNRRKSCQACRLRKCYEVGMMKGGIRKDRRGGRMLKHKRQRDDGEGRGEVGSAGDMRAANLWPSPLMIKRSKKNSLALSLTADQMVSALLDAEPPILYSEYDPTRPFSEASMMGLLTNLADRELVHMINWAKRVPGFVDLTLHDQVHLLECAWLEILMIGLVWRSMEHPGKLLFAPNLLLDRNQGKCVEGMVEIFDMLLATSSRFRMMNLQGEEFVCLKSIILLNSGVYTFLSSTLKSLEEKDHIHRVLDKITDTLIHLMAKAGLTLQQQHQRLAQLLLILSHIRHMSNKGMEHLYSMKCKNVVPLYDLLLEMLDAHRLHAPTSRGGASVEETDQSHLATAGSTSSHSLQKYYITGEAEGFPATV

O=C1CCC(N2Cc3cc4c(cc3C2=O)OC[C@@H]2CN(CC3CCC5(CC3)CN(c3ccc([C@@H]6c7ccc(O)cc7OC[C@@H]6c6ccccc6)cc3)C5)CCN42)C(=O)N1 (single isomer, unassigned) [Compound A58]
IC50 [1]: 50 to 500 nM
IC50 [2]: 500 to 5000 nM
IC50 [3]: 50 to 500 nM
IC50 [4]: < 5 nM
DC50 [5]: 1 to 10 nM
T47D Dmax % ([5]; maximal ER degradation): B (“B”: >50% and <75%)
DC50 [6]: 1 to 10 nM
MCF7 Dmax % [6]: C (“C”: 25%-50%)

O=C1CC[C@@H](N2Cc3cc4c(cc3C2=O)OCC2CN(CC3CCC5(CC3)CN(c3ccc([C@H]6c7ccc(O)cc7OC[C@H]6c6ccccc6)cc3)C5)CCN42)C(=O)N1 (stereo in doubt) [Compound A120, (R)-3-((R)-3-((2-(4-((3R,4S)-7-hydroxy-3-phenylchroman-4-yl)phenyl)-2-azaspiro[3.5]nonan-7-yl)methyl)-8-oxo-1,2,3,4,4a, 5,8,10-octahydro-9H-pyrazino[1′,2′:4,5][1,4]oxazino[2,3-f]isoindol-9-yl)piperidine-2,6-dione]
IC50 [1]: 50 to 500 nM
IC50 [3]: 50 to 500 nM
IC50 [4]: < 5 nM
DC50 [5]: < 1 nM
Dmax ([5]; maximal ER degradation): ≥ 75%
DC50 [6]: 1 to 10 nM
Dmax [6]: ≥ 75%

O=C1CC[C@H](N2Cc3c(ccc4c3OC[C@H]3CN(CC5CC6(CCN(c7ccc([C@H]8c9ccc(O)cc9OC[C@H]8c8ccccc8)cc7)CC6)C5)CCN43)C2=O)C(=O)N1 (single isomer, unassigned) [Compound A50]
IC50 [1]: 50 to 500 nM
IC50 [2]: 50 to 500 nM
IC50 [3]: 50 to 500 nM
IC50 [4]: < 5 nM
DC50 [5]: < 1 nM
Dmax ([5]; maximal ER degradation): 50 to 75%
DC50 [6]: 1 to 10 nM
Dmax [6]: 50 to 75%

O=C1CCC(N2Cc3cc4c(cc3C2=O)CN(C(=O)CN2CC3(CCN(c5ccc([C@H]6c7ccc(O)cc7OC[C@H]6c6ccccc6)cc5)CC3)C2)C4)C(=O)N1 (stereo partly drawn) [Compound A56, 3-(6-(2-(7-(4-((3R,4S)-7-hydroxy-3-phenylchroman-4-yl)phenyl)-2,7-diazaspiro[3.5]nonan-2-yl)acetyl)-1-oxo-3,5,6,7-tetrahydropyrrolo[3,4-f]isoindol-2(1H)-yl)piperidine-2,6-dione formate]
IC50 [1]: < 50 nM
IC50 [2]: 50 to 500 nM
IC50 [3]: < 50 nM
DC50 [5]: < 1 nM
Dmax ([5]; maximal ER degradation): ≥ 75%
DC50 ([6]; formate): 1 to 10 nM
MCF7 Dmax % ([6]; formate): B (“B”: >50% and <75%)

O=C1CC[C@@H](N2Cc3cc4c(cc3C2=O)OC[C@H]2CN(CC3CCC5(CC3)CN(c3ccc([C@@H]6c7ccc(O)cc7OC[C@@H]6c6ccccc6)cc3)C5)CCN42)C(=O)N1 [Compound A119, (R)-3-((R)-3-((2-(4-((3S,4R)-7-hydroxy-3-phenylchroman-4-yl)phenyl)-2-azaspiro[3.5]nonan-7-yl)methyl)-8-oxo-1,2,3,4,4a,5,8,10-octahydro-9H-pyrazino[1′,2′:4,5][1,4]oxazino[2,3-f]isoindol-9-yl)piperidine-2,6-dione]
IC50 [1]: 500 to 5000 nM
IC50 [2]: 500 to 5000 nM
IC50 [3]: 50 to 500 nM
DC50 [5]: 1 to 10 nM
Dmax ([5]; maximal ER degradation): 50 to 75%
DC50 [6]: 1 to 10 nM
Dmax [6]: 50 to 75%

O=C1CC[C@@H](N2Cc3cc4c(cc3C2=O)OC[C@H]2CN(CC3COC5(CCN(c6ccc([C@H]7c8ccc(O)cc8OC[C@H]7c7ccccc7)cc6)CC5)C3)CCN42)C(=O)N1 (stereo partly drawn) [Compound A138, (3R)-3-((4aR)-3-((8-(4-((3R,4S)-7-hydroxy-3-phenylchroman-4-yl)phenyl)-1-oxa-8-azaspiro[4.5]decan-3-yl)methyl)-8-oxo-1,2,3,4,4a,5,8,10-octahydro-9H-pyrazino[1′,2′:4,5][1,4]oxazino[2,3-f]isoindol-9-yl)piperidine-2,6-dione]
IC50 [1]: < 50 nM
IC50 [2]: 50 to 500 nM
IC50 [3]: < 50 nM
IC50 [4]: < 5 nM
DC50 [5]: < 1 nM
Dmax ([5]; maximal ER degradation): 50 to 75%
DC50 [6]: < 1 nM
Dmax [6]: ≥ 75%

COc1cc(N2CCC(CN3CCC(c4ccc(N[C@@H]5CCC(=O)NC5=O)cc4)CC3)CC2)ccc1[C@@H]1c2ccc(O)cc2OC[C@@H]1c1ccccc1 [Compound A150, (R)-3-((4-(1-((1-(4-((3S,4R)-7-hydroxy-3-phenylchroman-4-yl)-3-methoxyphenyl)piperidin-4-yl)methyl)piperidin-4-yl)phenyl)amino)piperidine-2,6-dione]
IC50 [1]: 50 to 500 nM
IC50 [3]: 50 to 500 nM
IC50 [4]: < 5 nM
DC50 [5]: < 1 nM
Dmax ([5]; maximal ER degradation): 25 to 50%
DC50 [6]: < 1 nM
Dmax [6]: 25 to 50%

O=C1CC[C@@H](N2Cc3cc4c(cc3C2=O)OC[C@@H]2CN(CC3CC5(CCN(c6ccc([C@H]7c8ccc(O)cc8OC[C@H]7c7ccccc7)cc6)CC5)C3)CCN42)C(=O)N1 [Compound A96, (R)-3-((S)-3-((7-(4-((3R,4S)-7-hydroxy-3-phenylchroman-4-yl)phenyl)-7-azaspiro[3.5]nonan-2-yl)methyl)-8-oxo-1,2,3,4,4a,5,8,10-octahydro-9H-pyrazino[1′,2′:4,5][1,4]oxazino[2,3-f]isoindol-9-yl)piperidine-2,6-dione]
IC50 [1]: < 50 nM
IC50 [2]: 50 to 500 nM
IC50 [3]: < 50 nM
DC50 [5]: < 1 nM
Dmax ([5]; maximal ER degradation): 50 to 75%
DC50 [6]: < 1 nM
Dmax [6]: 50 to 75%

O=C1CCC(N2Cc3c(ccc4c3OCC43CCN(CC4CC5(CCN(c6ccc([C@@H]7c8ccc(O)cc8OC[C@@H]7c7ccccc7)cc6)CC5)C4)CC3)C2=O)C(=O)N1 (stereo partly drawn) [Compound A113, 3-(1′-((7-(4-((3S,4R)-7-hydroxy-3-phenylchroman-4-yl)phenyl)-7-azaspiro[3.5]nonan-2-yl)methyl)-6-oxo-6,8-dihydro-2H,7H-spiro[furo[2,3-e]isoindole-3,4′-piperidin]-7-yl)piperidine-2,6-dione]
IC50 [1]: > 5000 nM
IC50 [2]: < 50 nM
IC50 [3]: < 50 nM
DC50 [5]: < 1 nM
Dmax ([5]; maximal ER degradation): 50 to 75%
DC50 [6]: < 1 nM
Dmax [6]: 50 to 75%

O=C1CC[C@@H](N2Cc3cc4c(cc3C2=O)OC[C@H]2CN(CC3CCC5(CC3)CN(c3ccc([C@H]6c7ccc(O)cc7OC[C@H]6c6ccccc6)cc3)C5)CCN42)C(=O)N1 (single isomer, unassigned) [Compound A118]
IC50 [1]: 50 to 500 nM
IC50 [3]: 50 to 500 nM
IC50 [4]: < 5 nM
DC50 [5]: 1 to 10 nM
Dmax ([5]; maximal ER degradation): ≥ 75%
DC50 [6]: 1 to 10 nM
Dmax [6]: ≥ 75%

O=C1CC[C@@H](N2Cc3cc4c(cc3C2=O)OC[C@H]2CN(CC3CC5(CCN(c6ccc([C@@H]7c8ccc(O)cc8OC[C@@H]7c7ccccc7)cc6)CC5)C3)CCN42)C(=O)N1 [Compound A95, (R)-3-((R)-3-((7-(4-((3S,4R)-7-hydroxy-3-phenylchroman-4-yl)phenyl)-7-azaspiro[3.5]nonan-2-yl)methyl)-8-oxo-1,2,3,4,4a,5,8,10-octahydro-9H-pyrazino[1′,2′:4,5][1,4]oxazino[2,3-f]isoindol-9-yl)piperidine-2,6-dione]
IC50 [1]: < 50 nM
IC50 [2]: 500 to 5000 nM
IC50 [3]: 50 to 500 nM
DC50 [5]: 1 to 10 nM
Dmax ([5]; maximal ER degradation): 50 to 75%
DC50 [6]: 1 to 10 nM
Dmax [6]: 50 to 75%
